Where two headings read alike, the source gives them in different places.
How the values were obtained:
AChE (from electric eel) = target: T1, AChE (from electric eel) (Electrophorus electricus, UniProt O42275); assay: biochemical; assay type: biochemical; conditions: for Selectivity Index = IC50 (BChE)/IC50 (AChE): IC50 BuChE/IC50 AChE; for IC50: mean ± SEM, NA = No potent inhibitory activity
T1 construct: purchased Merck & Co
Description: (§1) Photometric 96-well microplates made from polystyrene (Thermo Scientific, Waltham, […]. USA) were used for measurement purposes.
(§2) AChE and BuChE inhibitory activities were measured by the spectrophotometric method of Ellman, with slight modification. Briefly, all in vitro assays were performed in 0.1 M NaH2PO4/Na2HPO4 buffer, pH 7.4, using a THERMO Enzyme-labeled Instrument. The enzyme solutions were prepared to obtain 2.0 units/mL in 2.0 mL aliquots. The assay medium (1 mL) consisted of phosphate buffer (pH 7.4), 10 μL of the enzyme, 30 μL of 0.01 M DTNB, and 30 μL of substrate (ATC or BTC) at a concentration of 0.01 M. The test and reference compounds were first dissolved in DMSO (5‰) and fetal bovine serum (1‰), and then diluted in 0.1 M NaH2PO4/Na2HPO4 buffer (pH 7.4) to provide a final concentration range. The inhibitors were added to the assay solution containing enzyme, buffer, and DTNB with pre-incubation for 20 min at 37 °C, prior to the addition of the substrate. The activity was determined by measuring the increase in absorbance at 410 nm at 1 min intervals at 37 °C. The data were calculated according to the method described by Ellman et al. Each concentration was assayed in triplicate. Blanks containing all of the components except AChE were included in the analyses.

[1] = target: T2, BuChE (from equine serum) (Equus caballus, UniProt P81908); assay: biochemical; conditions: mean ± SEM
T2 construct: purchased Merck & Co; host or cells: equine serum
T2 sequence (P81908 whole entry): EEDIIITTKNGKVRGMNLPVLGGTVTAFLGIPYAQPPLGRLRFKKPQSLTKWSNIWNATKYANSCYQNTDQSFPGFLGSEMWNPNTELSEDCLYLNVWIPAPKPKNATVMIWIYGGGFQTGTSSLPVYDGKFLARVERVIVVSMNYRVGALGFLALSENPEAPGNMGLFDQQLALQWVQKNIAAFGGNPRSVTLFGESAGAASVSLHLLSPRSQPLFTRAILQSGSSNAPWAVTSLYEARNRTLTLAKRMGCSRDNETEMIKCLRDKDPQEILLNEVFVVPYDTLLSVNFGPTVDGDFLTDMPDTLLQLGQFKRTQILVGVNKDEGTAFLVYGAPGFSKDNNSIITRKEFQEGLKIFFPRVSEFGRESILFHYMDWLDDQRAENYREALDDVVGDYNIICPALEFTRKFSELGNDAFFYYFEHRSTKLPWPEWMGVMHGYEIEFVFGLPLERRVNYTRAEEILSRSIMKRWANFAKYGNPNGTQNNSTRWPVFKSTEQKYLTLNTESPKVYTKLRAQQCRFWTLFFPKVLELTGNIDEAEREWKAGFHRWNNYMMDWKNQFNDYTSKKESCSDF
Description: as §1, §2

Aβ (1-42) = target: T3, Aβ (1-42) (Homo sapiens, UniProt P05067); assay: biochemical; conditions: self-induced aggregation, thioflavin-T; Aβ 20 μM, 37 °C, 24 h; NA = No potent inhibitory activity
T3 construct: Aβ (1-42) peptide (Sigma-Aldrich); purchased Sigma-Aldrich
T3 sequence (P05067 672-713): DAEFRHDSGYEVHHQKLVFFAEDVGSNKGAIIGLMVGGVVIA
Description: A Thioflavin T-based fluorometric assay was performed in order to investigate the self-induced Aβ (1-42) aggregation. Briefly, compounds to be tested were firstly dissolved in DMSO to obtain a 10 mM solution and then diluted in phosphate buffer (pH 7.4) to provide a final concentration range. […] After incubation, thioflavin-T (5 μM in 50 mM glycine-NaOH buffer, pH 8.0) was added into the above 96-well microplate and the samples were diluted to a final volume of 150 μL. […] Each inhibitor was run in triplicate.

HepG2 cells = assay type: cell-based
Description: One of the best documented side-effects of the drug discovery and development of AD is cytotoxicity. To probe whether such a type of target compounds involves cytotoxic effects, we respectively treated HepG2 cells and SH-SY5Y cells with several concentrations of the corresponding compound. Cell viability was determined by a CCK-8 assay. […].
HepG2 cells (human hepatocellular liver carcinoma cell line from American Type Culture Collection, ATCC) were cultured in Eagle’s minimum essential medium (EMEM) supplemented with 10% heat-inactivated fetal bovine serum (FBS), and 100 U/mL of penicillin/streptomycin (Gino Biomedical Technology Co. LTD., Hangzhou, China). Cultures were seeded into flasks containing supplemented medium and maintained at 37 °C in a humidified atmosphere of 5% CO2. For assays, cells (1.0 × 10^5 cells/well) were seeded in a 96-well plate in complete medium, the medium was removed after 24 h, and cells were exposed to the increasing concentrations of compounds 8q or 8r (0, 25, 50, 125, 200, 300, 400, and 500 μM) in DMEM with no serum for a further 24 h. Cell survival was measured through a CCK-8 assay. All compounds were dissolved in pure DMSO.

SH-SY5Y cells = assay type: cell-based
Description: To probe whether such a type of target compounds involves cytotoxic effects, we respectively treated HepG2 cells and SH-SY5Y cells with several concentrations of the corresponding compound. Cell viability was determined by a CCK-8 assay.
SH-SY5Y cells (human neuroblastoma cell line from American Type Culture Collection, ATCC, Manassas, VA, USA) were seeded into 96-well plates at a density of 4 × 10^4 cells/mL in Dulbecco’s modified Eagle’s medium (DMEM) supplemented with 10% FBS and 100 U/mL of penicillin/streptomycin (Gino Biomedical Technology Co. LTD., Hangzhou, China), and incubated in a humidified atmosphere containing 5% CO2 at 37 °C. […] After this incubation, 10 μL/well of CCK-8 (5 mg/mL) was added and incubated at 37 °C for 4 h. The optical density (OD) of each well was measured using an Epoch Microplate Spectrophotometer (BioTek Instruments, Inc., Winooski, VT, USA) with a test wavelength of 450, 630 nm.

T1 sequence (O42275 24-633): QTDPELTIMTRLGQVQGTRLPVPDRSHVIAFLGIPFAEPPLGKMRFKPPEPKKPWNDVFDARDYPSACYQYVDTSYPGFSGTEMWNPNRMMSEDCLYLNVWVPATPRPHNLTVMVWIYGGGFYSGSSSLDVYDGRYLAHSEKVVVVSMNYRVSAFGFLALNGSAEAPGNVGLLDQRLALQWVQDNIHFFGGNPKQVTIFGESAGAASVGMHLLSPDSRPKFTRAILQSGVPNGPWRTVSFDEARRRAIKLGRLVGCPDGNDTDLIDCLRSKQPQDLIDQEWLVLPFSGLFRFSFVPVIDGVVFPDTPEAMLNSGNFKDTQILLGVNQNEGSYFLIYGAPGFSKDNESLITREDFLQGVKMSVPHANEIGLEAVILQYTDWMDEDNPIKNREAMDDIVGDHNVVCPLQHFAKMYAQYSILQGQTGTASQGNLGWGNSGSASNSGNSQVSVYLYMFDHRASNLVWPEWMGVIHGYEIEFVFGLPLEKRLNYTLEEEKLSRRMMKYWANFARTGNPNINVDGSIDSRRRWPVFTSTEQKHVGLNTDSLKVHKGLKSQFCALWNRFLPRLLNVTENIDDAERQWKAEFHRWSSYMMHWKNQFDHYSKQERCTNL

Structure (SMILES)	Selectivity Index = IC50 (BChE)/IC50 (AChE) (AChE (from electric eel))	IC50 (AChE (from electric eel)) [µM]	IC50 [1] [µM]	IC50 (Aβ (1-42)) [µM]	other results
COc1cccc(C(=O)OCCCOC(=O)c2nc(C)c(C)nc2C)c1OC [Compound 8a, 3-[(2,3-Dimethoxybenzoyl)oxy]propyl 3,5,6-trimethylpyrazine-2-carboxylate]	2.16 × 10^4	0.1679 ± 0.00039	3630 ± 70		
COc1cc(/C=C/C(=O)OCCCOC(=O)c2nc(C)c(C)nc2C)cc(OC)c1OC [Compound 8p, 3-{[(2E)-3-(3,4,5-Trimethoxyphenyl)prop-2-enoyl]oxy}propyl 3,5,6-tri-methylpyrazine-2-carboxylate]	4.30 × 10^4	0.09351 ± 0.0002	4020 ± 30	71.28 ± 0.044	
COc1cc(OC)cc(C(=O)OCCCOC(=O)c2nc(C)c(C)nc2C)c1 [Compound 8b, 3-[(3,5-Dimethoxybenzoyl)oxy]propyl 3,5,6-trimethylpyrazine-2-carboxylate]	1.27 × 10^6	0.00443 ± 0.00035	5640 ± 380	3.66 ± 0.104	
COc1cccc(OC)c1C(=O)OCCCOC(=O)c1nc(C)c(C)nc1C [Compound 8e, 3-[(2,6-Dimethoxybenzoyl)oxy]propyl 3,5,6-trimethylpyrazine-2-carboxylate]	2.36 × 10^3	0.1438 ± 0.00025	340 ± 30	55.86 ± 0.035	
Cc1nc(C)c(C(=O)OCCCOC(=O)c2ccc(Br)cc2)nc1C [Compound 8h, 3-[(4-Bromobenzoyl)oxy]propyl 3,5,6-trimethylpyrazine-2-carboxylate]	2.62		2490 ± 290		
Nc1c2c(nc3ccccc13)CCCC2 [Tacrine, reference compound]					Cell viability (HepG2 cells; 25 µM): 99.78 ± 1.07 ^ns percentage of control; Cell viability (HepG2 cells; 50 µM): 95.02 ± 2.30 ^ns percentage of control; Cell viability (HepG2 cells; 125 µM): 83.72 ± 0.73 percentage of control; Cell viability (HepG2 cells; 200 µM): 81.80 ± 1.86 percentage of control; Cell viability (HepG2 cells; 300 µM): 74.32 ± 3.93 percentage of control; Cell viability (HepG2 cells; 400 µM): 23.61 ± 0.05 percentage of control; Cell viability (HepG2 cells; 500 µM): 19.92 ± 0.05 percentage of control; Cell viability (SH-SY5Y cells; 25 µM): 87.89 ± 0.85 ^ns percentage of control; Cell viability (SH-SY5Y cells; 50 µM): 88.17 ± 1.55 ^ns percentage of control; Cell viability (SH-SY5Y cells; 125 µM): 75.42 ± 0.78 percentage of control; Cell viability (SH-SY5Y cells; 200 µM): 48.75 ± 0.43 percentage of control; Cell viability (SH-SY5Y cells; 300 µM): 43.39 ± 2.69 percentage of control; Cell viability (SH-SY5Y cells; 400 µM): 34.69 ± 2.86 percentage of control
COc1ccc(C(=O)OCCCOC(=O)c2nc(C)c(C)nc2C)cc1OC [Compound 8d, 3-[(3,4-Dimethoxybenzoyl)oxy]propyl 3,5,6-trimethylpyrazine-2-carboxylate]	1.02 × 10^6	0.00412 ± 0.00024	4290 ± 120	51.81 ± 0.047	
Cc1nc(C)c(C(=O)OCCCOC(=O)c2cccc(Cl)c2)nc1C [Compound 8f, 3-[(3-Chlorobenzoyl)oxy]propyl 3,5,6-trimethylpyrazine-2-carboxylate]	4.95 × 10^5	0.00661 ± 0.00013	3270 ± 60	45.88 ± 0.024	
Cc1nc(C)c(C(=O)OCCCOC(=O)c2cccc(F)c2)nc1C [Compound 8k, 3-[(3-Fluorobenzoyl)oxy]propyl 3,5,6-trimethylpyrazine-2-carboxylate]	9.49		5490 ± 150	5.1 ± 0.04	
COc1ccc(CC(=O)OCCCOC(=O)c2nc(C)c(C)nc2C)cc1F [Compound 8n, 3-{[(3-Fluoro-4-methoxyphenyl)acetyl]oxy}propyl 3,5,6-trimethylpyrazine-2-carboxylate]	20.67		3060 ± 340		
COc1ccc(C(=O)OCCCOC(=O)c2nc(C)c(C)nc2C)c(OC)c1 [Compound 8c, 3-[(2,4-Dimethoxybenzoyl)oxy]propyl 3,5,6-trimethylpyrazine-2-carboxylate]		0.3879 ± 0.00045	2700 ± 30	22.54 ± 0.014	
COc1ccc(C(=O)OCCCOC(=O)c2nc(C)c(C)nc2C)cc1F [Compound 8j, 3-[(3-Fluoro-4-methoxybenzoyl)oxy]propyl 3,5,6-trimethylpyrazine-2-carboxylate]	2.97		857 ± 2	7.12 ± 0.012	
COc1ccc(/C=C/C(=O)OCCCOC(=O)c2nc(C)c(C)nc2C)cc1OC [Compound 8o, 3-{[(2E)-3-(3,4-Dimethoxyphenyl)prop-2-enoyl]oxy}propyl 3,5,6-trimethyl-pyrazine-2-carboxylate]	1.23 × 10^6	0.00324 ± 0.0001	3970 ± 100	45.29 ± 0.033	
COc1cc(CC(=O)OCCCOC(=O)c2nc(C)c(C)nc2C)cc(OC)c1OC [Compound 8l, 3-{[(3,4,5-Trimethoxyphenyl)acetyl]oxy}propyl 3,5,6-trimethylpyrazine-2-carboxylate]	1.31 × 10^4	0.3034 ± 0.00026	3960 ± 260	77.45 ± 0.029	
Cc1nc(C)c(C(=O)OCCCOC(=O)c2cccc(Br)c2)nc1C [Compound 8g, 3-[(3-Bromobenzoyl)oxy]propyl 3,5,6-trimethylpyrazine-2-carboxylate]	6.23		21100 ± 460		
Cc1nc(C)c(C(=O)OCCCOC(=O)c2ccc(F)cc2)nc1C [Compound 8i, 3-[(4-Fluorobenzoyl)oxy]propyl 3,5,6-trimethylpyrazine-2-carboxylate]	1.14 × 10^2			211.18 ± 0.039	
Cc1nc(C)c(C(=O)OCCCOC(=O)Cc2ccc(Br)cc2)nc1C [Compound 8m, 3-{[(4-Bromophenyl)acetyl]oxy}propyl 3,5,6-trimethylpyrazine-2-carboxylate]	52.17			200.84 ± 0.016	

From publication PMC6222487 (Molecules : A Journal of Synthetic Chemistry and Natural …, 2018)
